Where a SMILES comes first, the peptide text is derived from it. The star is where a group is joined. Cbz = O=C(OCc1ccccc1)*
Tests used:
[1] = tested on: D5 T cells; assay: Ionomycin-induced anergy in D5 Th1 cells, immunoblot of signaling proteins and E3 ligases; type: cell-based, murine
Method: (§1) The murine D5 (Ar-5) Th1 cell clone was grown as previously described (F. Macian et al., Cell 109, 719-31 (2002). CD4+ cells were isolated from spleen and lymph nodes of DO11.10 or 2B4 TCR-transgenic mice using positive selection with anti-CD4 magnetic beads (Dynal), and differentiated into Th1 cells for 2 weeks using standard protocols (id.). Anergy was induced by treating primary Th1 cells or the D5 Th1 clone (10^6 cells/ml) with 1 μM ionomycin for 16 hours, Cyclosporin A was included in some experiments at a concentration of 2 μM. The cells were then washed to remove the ionomycin and incubated at higher cell density (˜3×10^6 cells/ml) for 1-2 hours at 37 C. In the experiment of FIG. 14, a high-density incubation step was included. The extent of anergy induction was evaluated by intracellular cytokine staining or in standard proliferation assays (id.). Restimulation of D5 cells was done with 1 μg/ml anti-CD3 with or without 2.5 μg/ml anti-CD28 or with 20 nM PMA or 1 μM Ionomycin or both. HEK 293 cells were grown and transfected with Ca2+ phosphate using standard protocols.
D5 cells were extracted at 10^6 cells/10 μl in RIPA buffer (20 mM Tris pH 7.5, 250 mM NaCl, 1 mM DTT, 10 mM MgCl2, 1% Nonidet P-40, 0.1% SDS, 0.5% sodium deoxycholate) supplemented with protease and phosphatase inhibitors (1 mM PMSF, 25 μg/ml aprotinin, 25 μg/ml leupeptin, 10 mM NaF, 8 mM β glycerophosphate, 0,1 mM sodium ortho vanadate). For assessing protein levels in cell extracts, 5-30 μl of RIPA extracts were separated on 9-12% SDS-polyacrylamide gels, and proteins were electrotransferred onto nitrocellulose membranes. For immunoprecipitations, 500-1000 μl of RIPA cell extracts were used. For coimmunoprecipitations from lysates of transfected HEK 293 cells, cells from one 10 cm dish were lysed in 50 mM Hepes pH 7.5, 100 mM NaCl, 1 mM EDTA, 0,5% NP-40 and 10% glycerol including phosphatase and protease inhibitors. Lysates were precleared with either protein A- or protein G-Sepharose, immunoprecipitations were performed for 4 hrs and the resulting precipitates were washed 3-4 times with the buffer used for cell extraction. Immunoblots were performed with antibody solutions in 5% milk and TBS (10 mM TrisCl (pH 8.0), 150 mM NaCl) and washes were done in TBS containing 0.05% Tween-20.

[2] = tested on: AND T cell blasts; assay: Stability of mature immunological synapses on lipid bilayers after phospholipase inhibitors; type: cell-based
Method: (§2) Planar bilayers were prepared essentially as described in (Grakoui et al., Science 285, 221-7 (1999)), except that the MCC88-103 peptide was loaded on the GPI-IEk for 24 hours. Bilayers were prepared using Oregon green labeled GPI-IEk and Cy5 labeled GPI-ICAM-1 in parallel plate flow cells (Bioptechs). Control and ionomycin treated cells were injected into the flow cell at a density of 10^6 cells/ml. Areas of bilayers where cells were forming synapses were imaged using FITC and Cy5 optics on an Olympus IX-70 inverted microscope equipped with a amamtsu ORCA-ER digital camera and a Xenon-arc lamp as a light source for fluorescence microscopy. […] Bright field, interference reflection (IRM) and fluorescence images were collected and processed using the Metamorph software. The background from the fluorescence images was subtracted using the produce background correction image function which is based on median filtering to subtract background that is nonuniform. Percentage of cells adhering were analyzed by comparing bright field and IRM images.
Experiments using phospholipase inhibitors were performed using AND T cell blasts (day 8). […] After 60 minutes, fields containing stable immunological synapses with central MHC clusters (green) and complete ICAM-1 rings (red) were imaged and the locations recorded using an automated stage and IPLab software. […]

[3] = tested on: HEK 293 cells; assay: PLC-γ1 ubiquitination in transfected HEK 293 cells; type: cell-based; conditions: 3 μM ionomycin for 30 min
Method: FIG. 17C is a chart and a set of immunoblots illustrating that Itch induces mono-, di- and poly-ubiquitination of PLC-γ1. HEK 293 cells were transfected in duplicate with expression vectors coding for HA-tagged ubiquitin, AU.1-tagged PLC-γ1 and/or myc-tagged Itch as indicated, and one culture of each pair was stimulated with 3 μM ionomycin for 30 min before cell extraction. Cell extracts were immunoprecipitated with AU.1 antibodies and analyzed for ubiquitin-modified or total immunoprecipitated PLC-γ1 (upper two panels), or were directly analyzed for PLC-γ1 and Itch expression by immunoblotting (lower two panels).
as §1, with “The extent of anergy induction was evaluated by intracellular cytokine staining or in standard proliferation assays (id.). Restimulation of D5 cells was done with 1 μg/ml anti-CD3 with or without 2.5 μg/ml anti-CD28 or with 20 nM PMA or 1 μM Ionomycin or both. HEK 293 cells were grown and transfected with Ca2+ phosphate using standard protocols.” left out

[4] = tested on: TH1 cells from 5CC7 TCR-transgenic mice; assay: Immune synapse formation by 5CC7 TCR-transgenic TH1 cells on lipid bilayers; type: cell-based; conditions: 5CC7 T cells pretreated with ionomycin for 16 h
Method: as §2
The formation of immune synapses was evaluated as described for the experiments shown in FIG. 19, with TH1 cells from wild-type or Cblb−/− 5CC7 TCR-transgenic mice and lipid bilayers displaying ICAM-1 and I-Ek pigeon cytochrome C (PCC) molecules. […] Below the image series is a histogram that quantifies the imaging results. […]

[5] = tested on: D5 cells; assay: Real-time RT-PCR of E3 ligase and PLC-γ1 mRNA levels in D5 cells; type: cell-based, murine; conditions: ionomycin-treated T cells
Method: Total RNA was prepared from untreated or ionomycin-pretreated D5 cells using Ultraspec reagent (Biotecx). cDNAs were synthesized from 2 μg of total RNA as template, using a cDNA synthesis kit (Invitrogen). Quantitative real time-PCR was performed in an I-Cycler (BioRad) using a SYBR Green PCR kit (Applied Biosystems). The sequences of the primer pairs are as follows:
Thermal cycling conditions were 95° C. for 5 min, then 40 cycles of 95° C., 65° C., and 72° C. for 30 sec each, terminating with a single cycle at 72° C. for 5 min. Signals were captured during the polymerization step (72° C.). A threshold was set in the linear part of the amplification curve, and the number of cycles needed to reach it was calculated for each gene. Melting curve analysis and agarose gel electrophoresis were performed to test the purity of the amplified bands. Normalization was performed by using L32 levels as an internal control for each sample. The ratio of mRNA levels in ionomycin-treated or ionomycin/CsA treated to untreated samples were determined.

[6] = tested on: Th1 cells from BALB/c mice; assay: Pulse-chase of PKCθ in Th1 cells; type: cell-based; conditions: ionomycin 16 h, pulse-chase with plate-bound anti-CD3
Method: FIG. 21 is a set of autoradiograms illustrating calcineurin-dependent degradation of PKCθ in anergic T cells. Th1 cells from BALB/c mice were left untreated or pretreated with ionomycin for 16 h, pulse-labeled for 2 h with ^35S cysteine/methionine, washed and stimulated with plate-bound anti-CD3 antibody during the indicated chase periods. PKCθ immunoprecipitates were analyzed by autoradiography.
CD4 cells were isolated via dynal beads selection, cells were starved for 1 hr in cysteine/methionine free media and incubated for 2 hrs with 100 μCi/ml 35S-cysteine and -methionine. Cells were washed, resuspended in complete media and stimulated with 2 μg/ml anti-CD3 on crosslinking antibody coated plates. Cells were extracted in RIPA buffer and immunoprecipitations performed as described above. Immunoprecipitates were resolved on SDS-PAGE, that were treated with Enhance solution (NEN), dried and used for autoradiographs. Densitometric analysis was performed using IQ-Mac vs 1.2 software.

**Q.** Which results are given for CC(C)C[C@@H](C=O)NC(=O)[C@H](CC(C)C)NC(=O)[C@H](CC(C)C)NC(=O)OCc1ccccc1 [MG132] (Cbz-Leu-Leu-Leu-aldehyde)?
**A.** PLC-γ1 degradation ([1]; ionomycin 16 h, then incubation with 10 μM MG132): did not prevent; accumulation of a modified (mono-ubiquitinated) form of PKCθ ([1]; only in anergized T cells, long exposure): increased the accumulation

**Q.** How did the “U73122 concentrations at which the effects were observed” value ([2]; 3 independent experiments) turn out when COc1ccc2c(c1)CC[C@@H]1[C@@H]2CC[C@]2(C)[C@@H](NCCCCCCN3C(=O)C=CC3=O)CC[C@@H]12 [U73122] was run?
**A.** 0.1 to 1 µM

**Q.** And the “effect on established mature synapses” value ([2]; added after mature synapses formed)?
**A.** disintegration of the outer LFA-1 ring

**Q.** With C[C@H](CCC(=O)O)C[C@H](C)C[C@H](C)C(=O)/C=C(\O)[C@H](C)C[C@H](C)C/C=C/[C@@H](C)[C@@H](O)[C@@H](C)[C@@H](O)C[C@@H]1CC[C@@](C)([C@H]2CC[C@@](C)([C@@H](C)O)O2)O1 [ionomycin] as the compound, how does the PLC-γ1 ubiquitination [3] read?
**A.** induced PLC-γ1 ubiquitination

**Q.** What about the “PLC-γ1, PKCθ and RasGAP protein levels” value ([1]; D5 T cells, ionomycin pretreatment followed by cell-cell contact, immunoblot) of the same compound?
**A.** pronounced decrease

**Q.** And the “increase in total protein ubiquitination” value ([1]; ionomycin pretreatment, D5 T cells)?
**A.** ~2 fold

**Q.** What about the Cbl-b protein induction ([1]; ionomycin-treated D5 cells) of the same compound?
**A.** even more highly induced

**Q.** What about the “Itch protein levels, increase” value ([1]; ionomycin-treated D5 cells) of the same compound?
**A.** ~3 fold

**Q.** And the Nedd4 protein levels ([1]; ionomycin-treated D5 cells)?
**A.** no change

**Q.** And the “Tsg101 protein levels, increase” value ([1]; ionomycin-treated D5 cells)?
**A.** ~3 fold

**Q.** And the synapse stability [4]?
**A.** synapse disorganization

**Q.** What about the “time to form the mature synapse on contact with the bilayer” value [4] of the same compound?
**A.** < 5 min

**Q.** And the “PLC-γ1 mRNA levels” value [5]?
**A.** remained constant

**Q.** And the “PKCθ turnover versus mock-treated T cells” value [6]?
**A.** significantly more rapidly

Source: patent US20070274915A1, “Modulation Of Anergy And Methods For isolating Anergy-Modulating Compounds” (priority 2003, published 2007)
